{"source": "patent US20230257429A1", "about": "“PEPTIDE ADJUVANT FOR ITS THERAPEUTIC APPLICATIONS IN VIRAL AND TUMOUR VACCINE DEVELOPMENT AND CANCER IMMUNOTHERAPY AND AUTOIMMUNE DISEASE DIAGNOSIS AND TREATMENTS” (National University of Singapore, priority 2020, published 2023)", "molecules": {"B1": {"name": "FBRL: recombinant fibrillarin with C-terminal HA tag (protein)", "chain": "MKPGFSPRGGGFGGRGGFGDRGGRGGRGGFGGGRGRGGGFRGRGRGGGGGGGGGGGGGRGGGGFHSGGNRGRGRGGKRGNQSGKNVMVEPHRHEGVFICRGKEDALVTKNLVPGESVYGEKRVSISEGDDKIEYRAWNPFRSKLAAAILGGVDQIHIKPGAKVLYLGAASGTTVSHVSDIVGPDGLVYAVEFSHRSGRDLINLAKKRTNIIPVIEDARHPHKYRMLIAMVDVIFADVAQPDQTRIVALNAHTFLRNGGHFVISIKANCIDSTASAEAVFASEVKKMQQENMKPQEQLTLEPYERDHAVVVGVYRPPPKVKN", "modifications": "C-terminal HA tag; FBRL"}, "B2": {"name": "GAR1-HA: recombinant GAR1 with a C-terminal HA tag (protein, UniProt Q9NY12 1-217, looked up)", "H/ACA ribonucleoprotein …": "MSFRGGGRGGFNRGGGGGGFNRGGSSNHFRGGGGGGGGGNFRGGGRGGFGRGGGRGGFNKGQDQGPPERVVLLGEFLHPCEDDIVCKCTTDENKVPYFNAPVYLENKEQIGKVDEIFGQLRDFYFSVKLSENMKASSFKKLQKFYIDPYKLLPLQRFLPRPPGEKGPPRGGGRGGRGGGRGGGGRGGGRGGGFRGGRGGGGGGFRGGRGGGFRGRGH", "modifications": "C-terminal HA tag"}}, "key": {"PBMC [1]": {"tested_on": "PBMC", "experiment": "PBMC activation, TNFα and IL-1β ELISA", "type": "cell-based, human", "details": "for adjuvant (alarmin) activity compared with NCL-P2+G / adjuvant (alarmin) activity compared with NCL-P2: PBMC stimulated 24 hr; for adjuvant (alarmin) activity compared with NCL-P2+G: TNFα by ELISA; for adjuvant (alarmin) activity compared with NCL-P2: TNFα in media; for TNFα induction from PBMC by known CPPs / TNFα production from PBMC: 24 hr; for TNFα induction from PBMC by known CPPs: ELISA; for TNFα production from PBMC: recombinant protein coated on plates", "protocol": "Buffy coat fractions were obtained from healthy blood donors at the Singapore Health Sciences Authority, with Institutional ethics approval, and PBMC were isolated using Ficoll-Paque (GE Healthcare). To isolate monocytes, PBMC were re-suspended to 1×10^7 cells/ml in the RPMI medium contained 5% (v/v) BCS and incubated for 1 hr in T75 flasks (20 ml/flask). Monocytes that adhered were harvested. To culture macrophages and DC [Cao, W., et al., Blood 107: 2777-2785, (2006), incorporated herein by reference], monocytes were resuspended to 1×10^6 cells/ml and cultured in 6-well plates (2 ml/well). Macrophages were cultured by adding M-CSF to 20 ng/ml and DC were cultured with 20 ng/ml GM-CSF and 40 ng/ml IL-4. M-CSF, GM-CSF and IL-4 were obtained from R&D Systems (Mineapolis, Minn.). Cells were cultured for 6 days with half of the media being replenished every two days.\nPurified proteins in PBS (30 μg/ml) were coated in triplicates in 96-well plates (50 μl/well) for 12 hr and PBMC (3×10^6 cells/ml), monocytes (1×10^6 cells/ml), macrophages (0.5×10^6 cells/ml) or DC (0.5×10^6 cells/ml) were re-suspended in macrophage serum-free medium containing penicillin and streptomycin and cultured for 24 hr in these plates at 100 μl/well. Where TLR ligands were used to stimulate these cells, they were added to the media: LPS (500 ng/ml for DC and macrophages and 10 ng/ml for PMBC and monocytes, InvivoGen), flagellin (1 μg/ml, InvivoGen), lipoteichic acid (LTA, 10 μg/ml). Cell activation was determined by measuring TNFα and IL-1β in the culture media using ELISA kits (Invitrogen)."}, "PBMC [2]": {"tested_on": "PBMC", "experiment": "Peptide binding to and penetration of PBMC, flow cytometry", "type": "cell-based, human", "details": "for CPP activity compared with P2+G / CPP activity compared with NCL-P2: PBMC; for CPP activity compared with P2+G: 1 hr at 4° C. and 37° C., MFI; for CPP activity compared with NCL-P2: peptide 200 μg/ml", "protocol": "PBMC re-suspended in 100 μl macrophage serum free media (3×10^6/ml) were incubated with different peptides (200 μg/ml). PBMC (100 μl) were incubated with the peptides for 1 hr at 37° C. or 4° C. Cells were washed twice in 2% FBS/PBS and incubated with streptavidin-AF488 and Zombie (NIR) Fixable viability stain-APC-Cy7 for 30 min at 4° C. Cells were then fixed with 1% PFA for 30 min at room temperature and analysed using the Fortessa analyser (BD). In some experiments, PBMC were, after incubation with peptides, incubated with Zombie (NIR) Fixable viability stain (APC-Cy7) for 30 min at 4° C. Cells were then fixed and permeabilized with BD CYTOFIX/CYTOPERM™ Kit for 20 min at 4° C., and then incubated with streptavidin-AF488 for 30 min at 4° C. In some experiments, PBMC were, after incubation with the peptides, stained with fluorescent mouse antibodies specific for monocytes (CD14/BV711), T cells (CD3/PerCP-Cy5-5) and B cells (CD19/Pacific blue). Cells were then stained with Zombie (NIR) Fixable viability stain-APC-Cy7 and streptavin-AF488, with or without membrane permeabilization. In these experiments, monocytes, T cells and B cells were separately gated to detect surface peptide binding and intracellular peptide penetration."}}, "note": "Entries after “also recorded” stand apart in the source; their conditions may differ.", "data": [{"molecule": "GGFGARGGARGARGGFGARGARGGFGARGGFRGARGA (NCL-P2+G(G/A))", "values": [{"measurement": "adjuvant (alarmin) activity compared with NCL-P2+G", "setting": "PBMC [1]", "value": "lost the alarmin activity"}, {"measurement": "CPP activity compared with P2+G", "setting": "PBMC [2]", "value": "completely lost the CPP activity"}]}, {"molecule": "GGFGGRGGGRGGRGGFGGRGGRGGFGGRGGFGGRGGRGG (NCL-P2+3G)", "values": [{"measurement": "adjuvant (alarmin) activity compared with NCL-P2+G", "setting": "PBMC [1]", "value": "no further improvement in adjuvant activity and instead it slightly reduced the high adjuvant activity"}, {"measurement": "adjuvant (alarmin) activity compared with NCL-P2", "setting": "PBMC [1]", "value": "significantly higher alarmin activity"}, {"measurement": "CPP activity compared with NCL-P2", "setting": "PBMC [2]; 1 hr at 4° C.", "value": "slightly higher CPP activity"}, {"measurement": "CPP activity compared with NCL-P2", "setting": "PBMC [2]; 1 hr at 4° C., listed as P2+3G", "value": "slightly increased their CPP activities"}]}, {"molecule": "MVTVLFRRLRIRRACGPPRVRV (CPP7) [reference compound]", "values": [{"measurement": "TNFα induction from PBMC by known CPPs", "setting": "PBMC [1]", "value": "No significant TNFα"}]}, {"molecule": "GGFGPRGGPRGPRGGFGPRGPRGGFGPRGGFRGPRGP (NCL-P2+G(G/P))", "values": [{"measurement": "adjuvant (alarmin) activity compared with NCL-P2+G", "setting": "PBMC [1]", "value": "lost the alarmin activity"}, {"measurement": "CPP activity compared with P2+G", "setting": "PBMC [2]", "value": "completely lost the CPP activity"}]}, {"molecule": "GGWGGRGGGRGGRGGWGGRGRGGWGGRGGWRGGRGG (NCL-P2F/W)", "values": [{"measurement": "adjuvant (alarmin) activity compared with NCL-P2", "setting": "PBMC [1]", "value": "lost the alarmin activity; also recorded: no significant alarmin activity"}, {"measurement": "adjuvant (alarmin) activity compared with NCL-P2", "setting": "PBMC [1]; listed as SEQ ID NO: 24", "value": "markedly diminished its adjuvant activity"}, {"measurement": "CPP activity compared with NCL-P2", "setting": "PBMC [2]; 1 hr at 4° C.", "value": "retained the CPP activity; also recorded: have cell-penetrating activity"}]}, {"molecule": "GGIGGRGGGRGGRGGIGGRGGRGGIGGRGGIRGGRGG (NCL-P2+G(F/I))", "values": [{"measurement": "adjuvant (alarmin) activity compared with NCL-P2+G", "setting": "PBMC [1]", "value": "retained the alarmin activity"}, {"measurement": "CPP activity compared with P2+G", "setting": "PBMC [2]", "value": "acquired higher CPP activities"}, {"measurement": "CPP activity compared with NCL-P2", "setting": "PBMC [2]; 1 hr at 4° C.", "value": "slightly increased their CPP activities"}]}, {"molecule": "GWTLNSAGYLLGKINLKALAALAKKIL [CPP6, reference compound]", "values": [{"measurement": "TNFα induction from PBMC by known CPPs", "setting": "PBMC [1]", "value": "No significant TNFα"}]}, {"molecule": "GGLGGRGGGRGGRGGLGGRGGRGGLGGRGGLRGGRGG (GGLGRRGGGRGGRGGLGGRGGRGGLGGRGGLRGGRGG; NCL-P2+G(F/L))", "values": [{"measurement": "adjuvant (alarmin) activity compared with NCL-P2+G", "setting": "PBMC [1]", "value": "stronger alarmin activity than P2+G; also recorded: retained the alarmin activity"}, {"measurement": "CPP activity compared with P2+G", "setting": "PBMC [2]", "value": "acquired higher CPP activities"}, {"measurement": "CPP activity compared with NCL-P2", "setting": "PBMC [2]; 1 hr at 4° C.", "value": "slightly increased their CPP activities"}]}, {"molecule": "NCL-P7: short peptide corresponding to the non-repetitive C-terminal end of the 48-residue GAR/RGG region (FRGGRGG; NCL-P7)", "values": [{"measurement": "intracellular pool / cell penetration (CPP activity) in PBMC", "setting": "PBMC [2]; 1 hr at 4° C., fixed/permeabilized, streptavidin-AF488", "value": "all lacked cell penetration"}]}, {"molecule": "GGFGGRGGRGGFGGRGGRGGFGGRGGRGGFGGRGGRGG (NCL-P2+2G)", "values": [{"measurement": "adjuvant (alarmin) activity compared with NCL-P2", "setting": "PBMC [1]", "value": "diminished rather than increased adjuvant activity; also recorded: slightly reduced alarmin activity"}]}, {"molecule": "RRRRNRTRRNRRRVRRRRRNRTRRNRRRVR (2xCPP4) [2×CPP4, reference compound]", "values": [{"measurement": "alarmin activity compared with CPP4", "setting": "PBMC [1]; PBMC 24 hr, TNFα ELISA", "value": "Little increase in alarmin activity"}]}, {"molecule": "B1", "values": [{"measurement": "TNFα production from PBMC", "setting": "PBMC [1]", "value": "strongly induced TNFα production"}]}, {"molecule": "B2", "values": [{"measurement": "TNFα production from PBMC", "setting": "PBMC [1]", "value": "indeed activated PBMC"}]}]}
